Measurements: patent publication US8729227B2, “Compounds for control of appetite” (University of Cincinnati, priority 2006, dated 2014)

Key:
C57BL/6 male mice [1] = assay: Preliminary dose study of B-48 on food intake of fasted mice (Example III); format: in vivo; conditions: ip, overnight (18 h) fasted mice, food intake monitored over 1-24 h; preliminary studies, results not shown
Protocol: To further study the feeding patterns of animals treated with B-48, experiments were performed in seven to eight week old C57BL/6 male mice (Harlan Laboratories, Indianapolis, Ind.) after acclimatization of mice for one week. More specifically, in preliminary studies, overnight (18 h) fasted animals were injected (ip) with 0.1 ml of saline or saline (0.1 ml) containing various concentrations of B-48 (0.025, 0.050, 0.100 or 0.150 μmol/mice) (n=8-10 per group). The mice were provided with a known quantity of chow 10 min later. The food intake was monitored over 1-24 h.

C57BL/6 male mice [2] = assay: Food intake of fasted mice after ip B-48 or B-74 alone or together (Example IV, FIGS. 2 and 3); format: in vivo; conditions: for Percentage of Inhibition of Food Intake Compared to Saline: B-48 vs. (B-48 + B-74), fasted mice, 0.050 μmol each compound
Protocol: To further compare the inhibitory effects of injecting (ip) 0.050 μmol of B-48 or B-74 alone or together (B-48+B-74) on the food intake by fasted mice, additional experiments were conducted.
Accordingly, to study the feeding patterns of animals treated with B-48 or B-74 alone or together (B-48+B-74), seven to eight week old C57BL/6 male mice (Harlan Laboratories, Indianapolis, Ind.) were individually housed in cages in a temperature controlled room (25° C.) under 12-hour light/dark cycles. The mice had free access to water and standard chow. After acclimatizing for one week, mice were fasted 18 hours before the experiment. The fasted animals were injected (ip) with 0.1 ml of saline or saline (0.1 ml) containing B-48 (0.050 μmol/mice) or B-74 (0.050 μmol/mice) alone or together, B-48+B-74 (0.100 μmol/mice, i.e. 0.050 μmol/mice per each compound), (n=8-10 per group). The mice were provided with a blown quantity of chow 10 minutes later. The food intake was monitored over 1-24 h. Statistical significance was determined by AN OVA, with individual means being compared post-hoc by Tukey's corrected t-test.

[3] = native PP; cited from earlier work
C57BL/6 male mice [4] = assay: Feeding pattern of fasted mice after ip injection of hPP or B-74 (Example II, FIG. 1); format: in vivo; conditions: 18 h fasted mice, B-74 100 nmol/mice, versus saline control
Protocol: To study the feeding patterns of animals treated with B-74, seven to eight week old C57BL/6 male mice (Harlan Laboratories, Indianapolis, Ind.) were individually housed in cages in a temperature controlled room (25° C.) under 12-hour light/dark cycles. Mice had free access to water and standard chow and were acclimatized to daily ip saline injections. […] Food was provided ten (10) minutes later, and the 2 and 4 hour food intake was monitored. Statistical significance was determined by ANOVA, with individual means being compared post-hoc by Tukey's corrected t-test.

Substance	minimum dose required to exhibit significant inhibitory effects on food intake (C57BL/6 male mice [1]) [μmol/mice]	Percentage of Inhibition of Food Intake Compared to Saline (C57BL/6 male mice [2]; 2 hours after injection) [%]	Percentage of Inhibition of Food Intake Compared to Saline (C57BL/6 male mice [2]; 4 hours after injection) [%]	Percentage of Inhibition of Food Intake Compared to Saline (C57BL/6 male mice [2]; 8 hours after injection) [%]	inhibition of food intake over the 24 h time period (C57BL/6 male mice [2]; 18 h fasted mice, 0.050 μmol/mice per each compound, alone or together)	Percentage of Inhibition of Food Intake Compared to Saline (C57BL/6 male mice [2]; 24 hours after injection) [%]	half-life [3]	2 h food intake (C57BL/6 male mice [4]; 2 h)	4 h food intake (C57BL/6 male mice [4]; 4 h)
N-α-Ac[Nle^24,28,Trp^30,Nva^31,ψ^35/36]PYY(22-36)-NH2 (ASXRHYXNWXTRQRY; N-acetyl, C-amide, Nle, Nva, reduced CH2-NH bond; synthesized by man) [B-48, PYY(22-36) analog, Y2 receptor agonist; ψ is —CH2-NH—]	0.050	39	30	16	inhibited food intake to a greater extent than the control	7			
APLEPVYPGDNATPEQMAQYAADLRRYINMLTRPRY [PP]							about six	inhibited	inhibited
